Experimental data published in paper PMC4286194 (Biochemical Journal, 2015).

What was measured:
CRTC3 = CRTC3 nuclear translocation (immunofluorescence); type: cell-based, mouse; settings: bone-marrow-derived macrophages, 1 h
Experimental: Macrophages were seeded on glass coverslips and treated with inhibitors for 1 h. Cells were then fixed for 10 min in 4% paraformaldehyde, permeabilized for 5 min using 0.1% Triton X-100 in PBS and blocked for 45 min using 3% BSA in PBS. Cells were stained with anti-CRTC3 and anti-tubulin followed by Alexa Fluor® […] anti-rabbit and Alexa Fluor® 488-conjugated anti-mouse antibodies respectively. Antibodies were diluted in blocking buffer and incubated with the cells for 45 min. Cells were mounted in Prolong Gold Antifade Reagent containing DAPI (Invitrogen) and visualized under a Zeiss LSM 700 confocal microscope using an Alpha Plan-Apochromat ×100/numerical aperture (NA) 1.46 objective (optical section thickness 0.7 μm). Fields of cells were selected at random using only the DAPI stained channel. Optical sections were taken through the centre of the nuclei, 10 fields collected per coverslip and images were quantified using the Volocity programme (PerkinElmer). Nuclei were identified using the DAPI stained channel, merged objects were separated and the mean intensity of the […] in the nuclear and cytoplasmic regions was measured. For each field, the mean of the nuclear to cytoplasmic intensity ratio was calculated, which was subsequently used to determine the overall mean nuclear to cytoplasmic intensity ratio for each treatment.

[1] = tested on: Bone-marrow-derived macrophages; test: Markers of 'regulatory' macrophages (qPCR); type: cell-based, mouse; settings: 3 μM bosutinib or 0.3 μM dasatinib 1 h, then LPS
Experimental: mRNA was extracted from cells using the MicroElute Total RNA kit following the manufacturers’ instructions (Omega Bio-Tek). cDNA was generated from 0.5 μg of total RNA using the iScript cDNA synthesis kit and quantified by quantitative real-time PCR (qPCR) using the SsoFast EvaGreen Supermix on a CFX384 real-time system (Bio-Rad Laboratories). The relative expression of each gene was calculated from CT values using the Pfaffl method and was normalized against the mRNA levels of housekeeping genes including 18S RNA and GAPDH. Results are reported relative to untreated control cells, which were set to 1.

CHK1 = target: T1, CHK1 (Homo sapiens, UniProt O14757); test: Kinase profiling; type: biochemical
T1 sequence (O14757 1-476): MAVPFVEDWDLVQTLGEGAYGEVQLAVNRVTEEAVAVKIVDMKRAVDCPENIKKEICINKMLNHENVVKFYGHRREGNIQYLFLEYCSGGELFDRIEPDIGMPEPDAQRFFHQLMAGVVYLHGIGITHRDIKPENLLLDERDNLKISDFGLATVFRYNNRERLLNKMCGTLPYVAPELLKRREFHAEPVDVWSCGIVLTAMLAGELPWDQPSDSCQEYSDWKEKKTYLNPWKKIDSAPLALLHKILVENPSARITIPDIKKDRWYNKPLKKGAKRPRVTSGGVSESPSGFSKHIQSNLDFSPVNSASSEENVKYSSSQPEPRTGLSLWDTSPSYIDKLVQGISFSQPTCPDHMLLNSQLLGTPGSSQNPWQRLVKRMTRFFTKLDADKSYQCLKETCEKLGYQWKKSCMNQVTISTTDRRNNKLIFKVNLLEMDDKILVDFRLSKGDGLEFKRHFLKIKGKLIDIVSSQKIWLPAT

CK1 gamma 2 = CK1 gamma 2 (Homo sapiens, UniProt P78368); test: Kinase profiling; type: biochemical
IRAK1 = IRAK1 (Homo sapiens, UniProt P51617); test: Kinase profiling; type: biochemical
JAK2 = JAK2 (Homo sapiens, UniProt O60674); test: Kinase profiling; type: biochemical
p38 gamma MAPK = target: T2, p38 gamma MAPK (Homo sapiens, UniProt P53778); test: Kinase profiling; type: biochemical
T2 sequence (P53778 1-367): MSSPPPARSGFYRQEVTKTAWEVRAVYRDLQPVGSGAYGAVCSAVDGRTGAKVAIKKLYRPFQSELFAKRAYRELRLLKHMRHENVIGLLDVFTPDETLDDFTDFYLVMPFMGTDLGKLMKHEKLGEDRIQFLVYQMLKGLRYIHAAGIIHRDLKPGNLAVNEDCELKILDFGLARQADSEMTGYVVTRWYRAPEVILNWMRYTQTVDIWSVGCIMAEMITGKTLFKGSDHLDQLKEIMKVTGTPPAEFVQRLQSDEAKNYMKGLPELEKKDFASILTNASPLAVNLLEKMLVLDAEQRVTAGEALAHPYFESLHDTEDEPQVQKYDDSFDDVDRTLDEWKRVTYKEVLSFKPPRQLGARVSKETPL

PDK1 = target: T3, PDK1 (Homo sapiens, UniProt O15530); test: Kinase profiling; type: biochemical
T3 sequence (O15530 1-556): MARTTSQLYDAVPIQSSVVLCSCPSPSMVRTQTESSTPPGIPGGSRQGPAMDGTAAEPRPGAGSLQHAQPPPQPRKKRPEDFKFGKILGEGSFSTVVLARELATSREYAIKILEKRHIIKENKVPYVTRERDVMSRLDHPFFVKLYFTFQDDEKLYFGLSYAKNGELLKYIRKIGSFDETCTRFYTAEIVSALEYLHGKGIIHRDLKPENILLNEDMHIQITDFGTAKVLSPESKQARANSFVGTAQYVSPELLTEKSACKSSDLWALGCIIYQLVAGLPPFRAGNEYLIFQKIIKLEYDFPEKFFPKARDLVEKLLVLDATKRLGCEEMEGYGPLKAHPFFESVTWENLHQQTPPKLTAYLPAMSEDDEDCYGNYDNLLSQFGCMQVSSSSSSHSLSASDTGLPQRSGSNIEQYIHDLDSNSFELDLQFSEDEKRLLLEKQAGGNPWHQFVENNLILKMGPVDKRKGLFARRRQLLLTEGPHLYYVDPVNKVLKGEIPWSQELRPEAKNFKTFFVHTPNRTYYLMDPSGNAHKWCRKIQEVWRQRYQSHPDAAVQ

PKB alpha = PKB alpha (Homo sapiens, UniProt P31749); test: Kinase profiling; type: biochemical
SIK2 = SIK2 (Homo sapiens, UniProt Q9H0K1); test: Kinase profiling; type: biochemical
TrkA = TrkA (Homo sapiens, UniProt P04629); test: Kinase profiling; type: biochemical
Sequence of TrkA (P04629 33-796): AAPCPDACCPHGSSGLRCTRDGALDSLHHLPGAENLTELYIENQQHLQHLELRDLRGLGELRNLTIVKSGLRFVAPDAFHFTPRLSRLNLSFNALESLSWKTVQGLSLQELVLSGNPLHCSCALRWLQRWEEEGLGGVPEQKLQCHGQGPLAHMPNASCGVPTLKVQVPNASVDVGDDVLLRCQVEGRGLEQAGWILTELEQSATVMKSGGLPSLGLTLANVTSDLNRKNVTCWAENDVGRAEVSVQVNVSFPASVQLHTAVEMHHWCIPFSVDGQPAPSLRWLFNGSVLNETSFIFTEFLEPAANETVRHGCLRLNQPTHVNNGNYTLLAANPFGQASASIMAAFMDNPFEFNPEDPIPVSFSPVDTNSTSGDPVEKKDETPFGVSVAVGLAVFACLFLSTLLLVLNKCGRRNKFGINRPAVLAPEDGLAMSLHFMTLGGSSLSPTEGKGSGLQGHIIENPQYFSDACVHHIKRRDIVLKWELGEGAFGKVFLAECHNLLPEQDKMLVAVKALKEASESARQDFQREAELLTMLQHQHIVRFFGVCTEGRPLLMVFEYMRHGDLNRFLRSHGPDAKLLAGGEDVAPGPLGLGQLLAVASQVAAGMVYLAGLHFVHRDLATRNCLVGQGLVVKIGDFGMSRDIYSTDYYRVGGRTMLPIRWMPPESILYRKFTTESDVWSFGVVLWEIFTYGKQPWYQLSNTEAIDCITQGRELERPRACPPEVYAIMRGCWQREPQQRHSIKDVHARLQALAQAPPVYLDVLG

Sequence of PKB alpha (P31749 whole entry): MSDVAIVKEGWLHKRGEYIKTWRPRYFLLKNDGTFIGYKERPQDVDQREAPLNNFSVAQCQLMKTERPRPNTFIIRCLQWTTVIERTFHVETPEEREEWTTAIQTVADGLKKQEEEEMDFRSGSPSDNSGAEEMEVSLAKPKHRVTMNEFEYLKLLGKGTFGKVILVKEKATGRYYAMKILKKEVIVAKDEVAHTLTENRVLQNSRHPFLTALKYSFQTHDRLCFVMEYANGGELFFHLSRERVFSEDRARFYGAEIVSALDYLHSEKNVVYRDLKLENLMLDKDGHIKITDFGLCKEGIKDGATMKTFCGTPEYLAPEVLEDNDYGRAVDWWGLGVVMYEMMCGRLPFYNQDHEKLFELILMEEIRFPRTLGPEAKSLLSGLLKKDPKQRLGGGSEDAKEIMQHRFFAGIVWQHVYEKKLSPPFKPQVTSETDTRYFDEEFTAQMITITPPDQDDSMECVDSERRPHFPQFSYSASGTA
Sequence of SIK2 (Q9H0K1 whole entry): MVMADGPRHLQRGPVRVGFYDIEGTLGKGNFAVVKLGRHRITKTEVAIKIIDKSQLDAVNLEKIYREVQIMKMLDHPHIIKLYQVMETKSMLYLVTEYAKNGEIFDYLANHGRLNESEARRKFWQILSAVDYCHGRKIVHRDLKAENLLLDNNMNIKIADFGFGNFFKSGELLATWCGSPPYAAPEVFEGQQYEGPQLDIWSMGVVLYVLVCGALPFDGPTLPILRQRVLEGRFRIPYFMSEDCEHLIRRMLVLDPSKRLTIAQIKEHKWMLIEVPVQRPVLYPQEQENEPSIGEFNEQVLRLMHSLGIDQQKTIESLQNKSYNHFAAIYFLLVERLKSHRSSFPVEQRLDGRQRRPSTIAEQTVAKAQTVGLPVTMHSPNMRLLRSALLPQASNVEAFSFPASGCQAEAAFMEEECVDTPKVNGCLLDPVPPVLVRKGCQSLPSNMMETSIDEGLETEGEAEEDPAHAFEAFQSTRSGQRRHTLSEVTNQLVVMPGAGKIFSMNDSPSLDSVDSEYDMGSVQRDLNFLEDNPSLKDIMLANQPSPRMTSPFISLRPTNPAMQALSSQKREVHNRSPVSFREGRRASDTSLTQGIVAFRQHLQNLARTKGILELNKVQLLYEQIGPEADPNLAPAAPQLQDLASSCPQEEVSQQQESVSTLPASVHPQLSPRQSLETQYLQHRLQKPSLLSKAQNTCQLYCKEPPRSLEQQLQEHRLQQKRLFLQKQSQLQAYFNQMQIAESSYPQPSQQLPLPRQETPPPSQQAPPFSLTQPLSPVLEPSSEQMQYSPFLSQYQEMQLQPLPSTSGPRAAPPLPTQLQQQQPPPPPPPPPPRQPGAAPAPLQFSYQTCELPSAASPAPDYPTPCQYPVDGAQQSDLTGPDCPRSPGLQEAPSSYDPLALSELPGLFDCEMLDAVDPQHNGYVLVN
Sequence of JAK2 (O60674 whole entry): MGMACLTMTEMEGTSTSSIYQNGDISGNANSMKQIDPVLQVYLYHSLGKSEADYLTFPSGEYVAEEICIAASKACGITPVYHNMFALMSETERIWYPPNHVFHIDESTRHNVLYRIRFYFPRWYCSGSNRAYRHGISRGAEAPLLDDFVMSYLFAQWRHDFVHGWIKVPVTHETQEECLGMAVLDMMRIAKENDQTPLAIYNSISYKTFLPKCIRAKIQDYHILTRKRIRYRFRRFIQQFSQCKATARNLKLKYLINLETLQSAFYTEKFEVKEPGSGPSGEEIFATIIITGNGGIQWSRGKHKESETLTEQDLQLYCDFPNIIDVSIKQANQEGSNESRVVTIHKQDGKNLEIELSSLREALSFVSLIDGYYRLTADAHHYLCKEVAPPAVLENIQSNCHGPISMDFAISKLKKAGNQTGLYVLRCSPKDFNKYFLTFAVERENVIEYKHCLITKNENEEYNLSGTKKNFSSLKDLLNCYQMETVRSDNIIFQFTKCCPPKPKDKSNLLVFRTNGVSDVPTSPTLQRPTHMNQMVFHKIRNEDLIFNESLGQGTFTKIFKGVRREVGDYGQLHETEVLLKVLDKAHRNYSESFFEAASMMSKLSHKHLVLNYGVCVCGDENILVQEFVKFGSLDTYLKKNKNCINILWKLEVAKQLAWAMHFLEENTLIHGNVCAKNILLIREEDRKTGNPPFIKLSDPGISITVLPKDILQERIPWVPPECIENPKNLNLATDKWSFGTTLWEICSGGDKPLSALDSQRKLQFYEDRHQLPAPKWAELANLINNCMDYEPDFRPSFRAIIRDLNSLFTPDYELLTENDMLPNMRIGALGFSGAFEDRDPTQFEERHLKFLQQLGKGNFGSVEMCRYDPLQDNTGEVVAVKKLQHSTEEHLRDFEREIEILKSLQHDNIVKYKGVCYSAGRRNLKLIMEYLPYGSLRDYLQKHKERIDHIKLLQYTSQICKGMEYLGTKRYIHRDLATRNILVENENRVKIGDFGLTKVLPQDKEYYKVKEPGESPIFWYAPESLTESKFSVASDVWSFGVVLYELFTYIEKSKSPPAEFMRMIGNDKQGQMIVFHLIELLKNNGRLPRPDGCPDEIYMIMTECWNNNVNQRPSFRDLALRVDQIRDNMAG
Sequence of IRAK1 (P51617 whole entry): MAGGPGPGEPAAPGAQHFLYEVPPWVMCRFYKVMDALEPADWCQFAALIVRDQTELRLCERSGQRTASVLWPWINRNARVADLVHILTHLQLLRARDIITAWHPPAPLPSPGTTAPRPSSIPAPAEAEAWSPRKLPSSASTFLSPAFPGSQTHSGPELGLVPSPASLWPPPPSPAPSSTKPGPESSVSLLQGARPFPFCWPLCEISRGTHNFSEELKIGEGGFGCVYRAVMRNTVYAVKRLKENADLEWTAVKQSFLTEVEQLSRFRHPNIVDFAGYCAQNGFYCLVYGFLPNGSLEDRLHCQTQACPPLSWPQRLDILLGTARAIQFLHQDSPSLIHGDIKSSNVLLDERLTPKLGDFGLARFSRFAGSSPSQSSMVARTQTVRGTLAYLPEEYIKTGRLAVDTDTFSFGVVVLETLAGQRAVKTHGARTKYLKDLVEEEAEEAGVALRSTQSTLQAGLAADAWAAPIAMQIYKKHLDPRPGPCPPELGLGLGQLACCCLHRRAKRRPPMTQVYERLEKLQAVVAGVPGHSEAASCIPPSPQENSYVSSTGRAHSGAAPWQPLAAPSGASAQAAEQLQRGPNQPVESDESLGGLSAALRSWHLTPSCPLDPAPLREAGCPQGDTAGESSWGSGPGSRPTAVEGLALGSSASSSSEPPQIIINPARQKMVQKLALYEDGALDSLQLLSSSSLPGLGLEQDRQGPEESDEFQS
Sequence of CK1 gamma 2 (P78368 whole entry): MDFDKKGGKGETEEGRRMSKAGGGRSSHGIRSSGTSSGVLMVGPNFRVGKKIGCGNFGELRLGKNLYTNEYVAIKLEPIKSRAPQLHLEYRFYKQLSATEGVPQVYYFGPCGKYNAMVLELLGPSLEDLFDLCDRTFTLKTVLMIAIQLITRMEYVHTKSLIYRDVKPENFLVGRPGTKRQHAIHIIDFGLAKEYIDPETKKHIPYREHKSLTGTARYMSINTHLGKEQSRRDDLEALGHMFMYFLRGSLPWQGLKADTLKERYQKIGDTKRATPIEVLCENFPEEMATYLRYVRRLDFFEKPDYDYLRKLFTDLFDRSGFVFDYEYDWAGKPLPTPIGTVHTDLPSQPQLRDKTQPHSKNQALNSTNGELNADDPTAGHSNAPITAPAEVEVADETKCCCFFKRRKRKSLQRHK

COc1cc(Nc2c(C#N)cnc3cc(OCCCN4CCN(C)CC4)c(OC)cc23)c(Cl)cc1Cl [Bosutinib, bosutinib]
Localization of CRTC3 (CRTC3): translocation to the nucleus
Expression of SPHK1, LIGHT and arginase 1 [1]: elevated
remaining activity at 0.1 µM (CHK1): 91 ± 2%
remaining activity at 1 µM (CHK1): 57%
remaining activity at 0.1 µM (CK1 gamma 2): 117 ± 1%
remaining activity at 1 µM (CK1 gamma 2): 108 ± 4%
remaining activity at 0.1 µM (IRAK1): 77 ± 3%
remaining activity at 1 µM (IRAK1): 65%
remaining activity at 0.1 µM (JAK2): 72 ± 5%
remaining activity at 1 µM (JAK2): 26%
remaining activity at 0.1 µM (p38 gamma MAPK): 88 ± 3%
remaining activity at 0.1 µM (PDK1): 92 ± 16%
remaining activity at 1 µM (PDK1): 98%
remaining activity at 0.1 µM (PKB alpha; 0.1 µM): 110 ± 16%
remaining activity at 1 µM (PKB alpha): 116 ± 30%
remaining activity at 0.1 µM (SIK2): 8%
remaining activity at 1 µM (SIK2): 3%
remaining activity at 0.1 µM (TrkA): 25 ± 2%
remaining activity at 1 µM (TrkA): 7%

Cc1nc(Nc2ncc(C(=O)Nc3c(C)cccc3Cl)s2)cc(N2CCN(CCO)CC2)n1 [Dasatinib]
Localization of CRTC3 (CRTC3): translocation to the nucleus
Expression of SPHK1, LIGHT and arginase 1 [1]: elevated
remaining activity at 0.1 µM (CHK1): 100 ± 6%
remaining activity at 1 µM (CHK1): 96 ± 6%
remaining activity at 0.1 µM (CK1 gamma 2): 115%
remaining activity at 1 µM (CK1 gamma 2): 113 ± 12%
remaining activity at 0.1 µM (IRAK1): 96 ± 1%
remaining activity at 1 µM (IRAK1): 108 ± 3%
remaining activity at 0.1 µM (JAK2): 94 ± 2%
remaining activity at 1 µM (JAK2): 42 ± 1%
remaining activity at 0.1 µM (p38 gamma MAPK): 100 ± 4%
remaining activity at 1 µM (p38 gamma MAPK; 1 µM): 105 ± 7%
remaining activity at 0.1 µM (PDK1): 94 ± 9%
remaining activity at 1 µM (PDK1): 92 ± 1%
remaining activity at 1 µM (PKB alpha): 120 ± 13%
remaining activity at 0.1 µM (SIK2): 4 ± 1%
remaining activity at 1 µM (SIK2): 2 ± 1%
remaining activity at 0.1 µM (TrkA): 107 ± 11%
remaining activity at 1 µM (TrkA): 88 ± 2%
